Laboratory results from patent publication US9877981B2, “NAD biosynthesis and precursors for the treatment and prevention of cancer and proliferation” (President and Fellows of Harvard College, priority 2012, dated 2018).

Key:
HIF-1α = assay: Immunoblot of HIF-1α in PGC-1α/β KO myotubes; assay type: cell-based, mouse; details: PGC-1α/β knockout myotubes treated with DMOG
Experimental: Primary myoblasts cells were isolated from WT, SIRT1 KO (Price et al., 2012) and PGC-1α/β KO (Zechner et al., 2010) mice as previously described (Price et al., 2012). WT and PGC-1α/β KO primary myoblasts were plated and allowed to differentiate into myotubes by replacing the media with low glucose DMEM supplemented with 2% horse serum (Sigma-Aldrich) for 4 days. After the differentiation the cells were infected with empty vector or flag-SIRT1 adenovirus as described before (Gerhart-Hines et al., 2007). Media was replaced with fresh DMEM supplemented with 2% horse serum (Sigma-Aldrich) for an additional 48 hr and, after that the cells were harvested for the different assays as described. […]
Protein extracts from tissue or C2C12 cells were obtained by lysis in ice-cold lysis buffer (150 mM NaCl, 10 mM Tris HCl (pH 7.4), 1 mM EDTA, 1 mM EGTA, 1% Triton X-100, 0.5% NP-40) supplemented with a cocktail of protease and phosphatase inhibitors (Roche). Protein content was determined by the Bradford protein assay (Biorad), and 50 μg proteins were run on SDS-PAGE under reducing conditions. […] The immunostaining was detected using horseradish peroxidase-conjugated anti-rabbit or anti-mouse immunoglobulin for 1 h at room temperature.

[1] = tested on: skeletal muscle mitochondria; assay: Mitochondrial function in skeletal muscle of treated mice (membrane potential, ATP content, COX activity); assay type: in vivo
Experimental: C57BL/6J mice of 3, 6, 22, 24, or 30 months of age were obtained from the National Institutes of Aging mouse aging colony. Mice were acclimated for at least one-week prior to sacrifice. 3, and 24-month-old mice were given interperitoneal (IP) injections of 500 mg NMN/kg body weight per day or the equivalent volume of PBS for 7 consecutive days at 5:00 pm and 7:00 am on day 8 and sacrificed 4 hr after last injection. All animal studies followed the guidelines of and were approved by the Harvard Institutional Animal Care and Use Committee
Skeletal muscle mitochondria were isolated as described previously (Frezza et al., Nat. Protoc. 2:287-295 (2007)). Mitochondrial membrane potential, cytochrome c activity and succinate dehydrogenase were determined as described (Brautigan et al., Methods Enzymol. 53:128-164 (1978); Rolo et al., Biochim. Biophys. Acta. 1637:127-132 ([…]); Singer, T. P., Methods Biochem. Anal. 22:123-175 (1974)). ATP content was measured with a commercial kit according to the manufacturer's instructions (Roche).
(§1) C57BL/6J mice of 6, 22, or 30 months of age were obtained from the National Institutes of Aging mouse aging colony. Additionally 22 months old caloric restricted mice were also obtained from the National Institutes of Aging mouse aging colony. EGLN1 KO, SIRT1 KO and SIRT1 OE mice were generated as previously described (Minamishima et al., 2008; Price et al., 2012). Mice were acclimated for at least one-week prior to sacrifice. 3, 6, 22 and 24-month-old mice were given interperitoneal (IP) injections of 500 mg NMN/kg body weight per day or the equivalent volume of PBS for 7 consecutive days at 5:00 pm and 7:00 am on day 8 and sacrificed 4 hr after last injection.
Whole body SIRT1 overexpressor (SIRT1-tg) mice of 6 months of age were given interperitoneal (IP) injections of 300 mg DMOG/kg body weight per day or the equivalent volume of PBS for 5 consecutive days.
Whole body adult-inducible Egln1 knockout mice (Minamishima et al, 2007) were treated with IP injection of tamoxifen for 3 days after which they were allowed to rest. The mice were given interperitoneal (IP) injections of 500 mg NMN/kg body weight per day or the equivalent volume of PBS for 7 consecutive days at 5:00 pm and 7:00 am on day 8 and sacrificed 4 hr after last injection. All animal studies followed the guidelines of and were approved by the Harvard Institutional Animal Care and Use Committee.
Cytochrome c oxidase activity was polarographically determined based on the O2 consumption upon cytochrome c oxidation, as previously described (Brautigan et al., 1978). The reaction was carried out at 25° C. in 1.3 mL of standard respiratory medium (as in mitochondrial respiration) supplemented with 2 μM rotenone, 10 μM oxidized cytochrome c, 0.3 mg TritonX-100. Following addition of the sample, the reaction was initiated by adding 5 mM ascorbate plus 0.25 mM tetramethylphenylene-diamine (TMPD).
ATP content was measured with a commercial kit according to the manufacturer's instructions (Roche).

C2C12 myoblasts = assay: mtDNA content and ETC gene expression in C2C12 myoblasts; assay type: cell-based, mouse; details: C2C12 myoblasts treated with DMOG, 16 h
Experimental: C2C12 cell line (ATCC) was cultured in low glucose Dulbecco's modified eagle medium (DMEM) (Invitrogen) supplemented with 10% FBS (Invitrogen) and a mix of antibiotic and antimycotic (Invitrogen). To inhibit SIRT1, cells were treated the vehicle (0.001% DMSO) or 10 μM EX-527 (Tocris) for 12 h. C2C12 myoblasts were infected with an empty or SIRT1 adenovirus as described before (Gerhart-Hines et al., 2007) and the media was replaced with fresh DMEM for additional 48 h, after that the cells were treated as described before. To test the effects of hypoxia and HIFα stabilization in genome asyncrony, C2C12 myoblasts were exposed to 1% oxygen for 16 h or treated with the vehicle (0.001% DMSO) or DMOG (Cayman) for the same period of time.
RNA from skeletal muscle tissue and C2C12 cells were extracted with RNeasy mini kit (Qiagen) according to the instructions and quantified using the NanoDrop 1000 spectrophotometer (Thermo Scientific). cDNA was synthesized with the iSCRIP cDNA synthesis kit (BioRad) using 600 ng of RNA. Quantitative RT-PCR reactions were performed using 1 μM of primers and LightCycler® 480 SYBR Green Master (Roche) on an LightCycler® 480 detection system (Roche). Calculations were performed by a comparative method (2-ΔCT) using 18S as an internal control. For mtDNA analysis, total DNA was extracted with DNeasy blood and tissue kit (Qiagen). mtDNA was amplified using primers specific for the mitochondrial cytochrome c oxidase subunit 2 (COX2) gene and normalized to genomic DNA by amplification of the ribosomal protein s18 (rps18) nuclear gene. Primers were designed using the IDT software (IDT) and the primer sequences can be found in Table 1.

[2] = tested on: inflammatory markers (TNF-α, IL-6 and IL-18); assay: qPCR of inflammatory markers in gastrocnemius of treated mice; assay type: in vivo; details: old (22-month) mice; NMN one week; skeletal muscle
Text: as §1
RNA from skeletal muscle tissue and C2C12 cells were extracted with RNeasy mini kit (Qiagen) according to the instructions and quantified using the NanoDrop 1000 spectrophotometer (Thermo Scientific). cDNA was synthesized with the iSCRIP cDNA synthesis kit (BioRad) using 600 ng of RNA. Quantitative RT-PCR reactions were performed using 1 μM of primers and LightCycler® 480 SYBR Green Master (Roche) on an LightCycler® 480 detection system (Roche). Calculations were performed by a comparative method (2-ΔCT) using 18S as an internal control. […]

[3] = treated 24-month-old mice, NMN 500 mg/kg IP one week, skeletal muscle

Row | Compound | HIF-1α protein (HIF-1α) | increase in ATP levels observed in SIRT1-tg mice ([1]; SIRT1-tg mice, DMOG 300 mg/kg IP per day, 5 days, gastrocnemius) | expression of mitochondrially-encoded ETC genes (C2C12 myoblasts) | expression of nuclear-encoded ETC components (C2C12 myoblasts) | mtDNA content (C2C12 myoblasts) | expression of inflammation markers [2] | ATP levels ([1]; 6- and 22-month-old mice, NMN one week, gastrocnemius) | ATP levels in skeletal muscle ([1]; Egln1 KO mice treated with NMN 500 mg/kg IP 7 days, compared to WT controls) | ability of NMN to improve mitochondrial function (membrane potential) ([1]; SIRT1 KO mice vs WT, NMN or PBS, skeletal muscle mitochondria) | COX activity ([1]; old mice, NMN one week, gastrocnemius (FIG. 24H)) | mitochondrial membrane potential ([1]; treated 24-month-old mice, NMN 500 mg/kg IP one week, isolated skeletal muscle mitochondria) | ATP levels [1, 3] | COX activity [1, 3]
1 | COC(=O)CNC(=O)C(=O)OC [DMOG, dimethyloxaloylglycine] | stabilizes HIF-1α protein | abolished | specific decline | not the nuclear-encoded components | specific decline in mtDNA content |  |  |  |  |  |  |  | 
2 | NC(=O)c1ccc[n+]([C@@H]2O[C@H](COP(=O)([O-])O)[C@@H](O)[C@H]2O)c1 [NMN, nicotinamide mononucleotide] |  |  |  |  |  | completely reversed these markers | increase in ATP levels | did not restore | lost in animals lacking SIRT1 | increase | restoration of mitochondrial membrane potential to the levels of the young mice | increases in ATP levels | increases
